Measurements reported in ChEMBL document CHEMBL5465560, “Selectivity Literature for EUbOPEN Chemogenomic Library” (2024).

What was measured:
[1] = molecular target: T1, Interleukin-1 receptor-associated kinase 4 (Homo sapiens, UniProt Q9NWZ3); test: Selectivity interaction (Enzymatic assay) EUB0001550a IRAK4
T1 sequence (Q9NWZ3 whole entry): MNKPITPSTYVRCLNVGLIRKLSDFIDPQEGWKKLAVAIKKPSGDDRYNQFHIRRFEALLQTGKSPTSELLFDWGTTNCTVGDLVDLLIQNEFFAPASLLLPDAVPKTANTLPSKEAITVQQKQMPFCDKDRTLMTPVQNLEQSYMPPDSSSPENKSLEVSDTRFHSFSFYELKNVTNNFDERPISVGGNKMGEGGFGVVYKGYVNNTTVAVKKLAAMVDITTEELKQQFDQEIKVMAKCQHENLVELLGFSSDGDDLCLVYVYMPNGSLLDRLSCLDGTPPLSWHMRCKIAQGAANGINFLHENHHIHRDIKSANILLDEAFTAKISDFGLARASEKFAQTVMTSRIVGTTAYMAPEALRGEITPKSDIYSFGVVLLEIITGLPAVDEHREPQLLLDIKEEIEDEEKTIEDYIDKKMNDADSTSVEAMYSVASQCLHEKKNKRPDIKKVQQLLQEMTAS

[2] = molecular target: Protein kinase C theta type (Homo sapiens, UniProt Q04759); test: Selectivity interaction (Kinase panel (33PanQinase(R) Activity Assay)) EUB0000877a PRKCQ
Protein kinase C theta type, sequence (Q04759 whole entry): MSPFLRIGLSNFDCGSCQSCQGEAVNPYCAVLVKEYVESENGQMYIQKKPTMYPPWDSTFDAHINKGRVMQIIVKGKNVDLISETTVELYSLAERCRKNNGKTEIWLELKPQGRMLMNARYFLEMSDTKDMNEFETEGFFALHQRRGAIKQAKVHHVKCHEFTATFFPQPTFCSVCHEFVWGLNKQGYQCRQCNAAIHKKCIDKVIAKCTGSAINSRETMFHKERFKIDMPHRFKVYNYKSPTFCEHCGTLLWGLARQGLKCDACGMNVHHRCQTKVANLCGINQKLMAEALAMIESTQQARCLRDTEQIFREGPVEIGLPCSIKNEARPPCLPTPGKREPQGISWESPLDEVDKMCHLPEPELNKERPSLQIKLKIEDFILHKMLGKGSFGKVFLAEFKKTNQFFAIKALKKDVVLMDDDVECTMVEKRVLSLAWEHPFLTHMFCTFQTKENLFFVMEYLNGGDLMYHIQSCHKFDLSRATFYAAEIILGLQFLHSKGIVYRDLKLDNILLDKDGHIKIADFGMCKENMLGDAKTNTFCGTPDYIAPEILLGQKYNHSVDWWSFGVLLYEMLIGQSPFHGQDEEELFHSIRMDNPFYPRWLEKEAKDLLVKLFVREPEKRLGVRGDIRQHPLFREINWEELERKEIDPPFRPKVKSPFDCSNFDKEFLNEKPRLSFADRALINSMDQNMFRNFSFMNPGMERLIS

[3] = molecular target: T2, Muscle, skeletal receptor tyrosine-protein kinase (Homo sapiens) (UniProt O15146); test: Selectivity interaction (Kinase panel (Z-LYTE Assay)) EUB0001632a MUSK; conditions: at 10 µM
T2 sequence (whole entry): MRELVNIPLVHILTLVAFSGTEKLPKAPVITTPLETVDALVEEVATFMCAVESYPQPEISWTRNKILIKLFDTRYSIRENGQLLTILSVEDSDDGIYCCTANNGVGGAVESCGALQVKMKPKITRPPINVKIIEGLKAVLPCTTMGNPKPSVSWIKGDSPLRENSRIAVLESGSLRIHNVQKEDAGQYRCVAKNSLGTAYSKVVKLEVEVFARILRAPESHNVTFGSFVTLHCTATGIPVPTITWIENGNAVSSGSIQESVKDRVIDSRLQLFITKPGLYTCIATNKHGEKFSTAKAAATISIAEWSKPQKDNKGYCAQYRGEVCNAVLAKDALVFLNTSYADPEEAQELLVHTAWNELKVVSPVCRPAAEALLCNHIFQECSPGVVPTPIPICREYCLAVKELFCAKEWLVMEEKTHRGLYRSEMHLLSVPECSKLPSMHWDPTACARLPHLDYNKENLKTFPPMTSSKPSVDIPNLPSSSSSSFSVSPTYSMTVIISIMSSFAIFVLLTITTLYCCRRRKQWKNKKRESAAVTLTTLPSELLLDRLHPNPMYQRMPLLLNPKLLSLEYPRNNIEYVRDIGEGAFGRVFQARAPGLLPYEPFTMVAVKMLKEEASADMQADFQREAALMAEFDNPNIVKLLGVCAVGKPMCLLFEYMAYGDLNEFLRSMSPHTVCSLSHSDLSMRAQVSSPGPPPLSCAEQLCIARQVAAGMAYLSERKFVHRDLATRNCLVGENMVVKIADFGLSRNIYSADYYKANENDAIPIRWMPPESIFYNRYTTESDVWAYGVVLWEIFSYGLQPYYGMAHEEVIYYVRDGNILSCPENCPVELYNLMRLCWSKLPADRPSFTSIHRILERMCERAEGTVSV

[4] = molecular target: Leucine-rich repeat serine/threonine-protein kinase 2 (Homo sapiens, UniProt Q5S007); test: Selectivity interaction (ActivX KiNativ screen (kinase selectivity in THP-1 cell lysates)) EUB0000639a LRRK2; type: subcellular; conditions: lysate
Leucine-rich repeat serine/threonine-protein kinase 2, sequence (Q5S007 whole entry): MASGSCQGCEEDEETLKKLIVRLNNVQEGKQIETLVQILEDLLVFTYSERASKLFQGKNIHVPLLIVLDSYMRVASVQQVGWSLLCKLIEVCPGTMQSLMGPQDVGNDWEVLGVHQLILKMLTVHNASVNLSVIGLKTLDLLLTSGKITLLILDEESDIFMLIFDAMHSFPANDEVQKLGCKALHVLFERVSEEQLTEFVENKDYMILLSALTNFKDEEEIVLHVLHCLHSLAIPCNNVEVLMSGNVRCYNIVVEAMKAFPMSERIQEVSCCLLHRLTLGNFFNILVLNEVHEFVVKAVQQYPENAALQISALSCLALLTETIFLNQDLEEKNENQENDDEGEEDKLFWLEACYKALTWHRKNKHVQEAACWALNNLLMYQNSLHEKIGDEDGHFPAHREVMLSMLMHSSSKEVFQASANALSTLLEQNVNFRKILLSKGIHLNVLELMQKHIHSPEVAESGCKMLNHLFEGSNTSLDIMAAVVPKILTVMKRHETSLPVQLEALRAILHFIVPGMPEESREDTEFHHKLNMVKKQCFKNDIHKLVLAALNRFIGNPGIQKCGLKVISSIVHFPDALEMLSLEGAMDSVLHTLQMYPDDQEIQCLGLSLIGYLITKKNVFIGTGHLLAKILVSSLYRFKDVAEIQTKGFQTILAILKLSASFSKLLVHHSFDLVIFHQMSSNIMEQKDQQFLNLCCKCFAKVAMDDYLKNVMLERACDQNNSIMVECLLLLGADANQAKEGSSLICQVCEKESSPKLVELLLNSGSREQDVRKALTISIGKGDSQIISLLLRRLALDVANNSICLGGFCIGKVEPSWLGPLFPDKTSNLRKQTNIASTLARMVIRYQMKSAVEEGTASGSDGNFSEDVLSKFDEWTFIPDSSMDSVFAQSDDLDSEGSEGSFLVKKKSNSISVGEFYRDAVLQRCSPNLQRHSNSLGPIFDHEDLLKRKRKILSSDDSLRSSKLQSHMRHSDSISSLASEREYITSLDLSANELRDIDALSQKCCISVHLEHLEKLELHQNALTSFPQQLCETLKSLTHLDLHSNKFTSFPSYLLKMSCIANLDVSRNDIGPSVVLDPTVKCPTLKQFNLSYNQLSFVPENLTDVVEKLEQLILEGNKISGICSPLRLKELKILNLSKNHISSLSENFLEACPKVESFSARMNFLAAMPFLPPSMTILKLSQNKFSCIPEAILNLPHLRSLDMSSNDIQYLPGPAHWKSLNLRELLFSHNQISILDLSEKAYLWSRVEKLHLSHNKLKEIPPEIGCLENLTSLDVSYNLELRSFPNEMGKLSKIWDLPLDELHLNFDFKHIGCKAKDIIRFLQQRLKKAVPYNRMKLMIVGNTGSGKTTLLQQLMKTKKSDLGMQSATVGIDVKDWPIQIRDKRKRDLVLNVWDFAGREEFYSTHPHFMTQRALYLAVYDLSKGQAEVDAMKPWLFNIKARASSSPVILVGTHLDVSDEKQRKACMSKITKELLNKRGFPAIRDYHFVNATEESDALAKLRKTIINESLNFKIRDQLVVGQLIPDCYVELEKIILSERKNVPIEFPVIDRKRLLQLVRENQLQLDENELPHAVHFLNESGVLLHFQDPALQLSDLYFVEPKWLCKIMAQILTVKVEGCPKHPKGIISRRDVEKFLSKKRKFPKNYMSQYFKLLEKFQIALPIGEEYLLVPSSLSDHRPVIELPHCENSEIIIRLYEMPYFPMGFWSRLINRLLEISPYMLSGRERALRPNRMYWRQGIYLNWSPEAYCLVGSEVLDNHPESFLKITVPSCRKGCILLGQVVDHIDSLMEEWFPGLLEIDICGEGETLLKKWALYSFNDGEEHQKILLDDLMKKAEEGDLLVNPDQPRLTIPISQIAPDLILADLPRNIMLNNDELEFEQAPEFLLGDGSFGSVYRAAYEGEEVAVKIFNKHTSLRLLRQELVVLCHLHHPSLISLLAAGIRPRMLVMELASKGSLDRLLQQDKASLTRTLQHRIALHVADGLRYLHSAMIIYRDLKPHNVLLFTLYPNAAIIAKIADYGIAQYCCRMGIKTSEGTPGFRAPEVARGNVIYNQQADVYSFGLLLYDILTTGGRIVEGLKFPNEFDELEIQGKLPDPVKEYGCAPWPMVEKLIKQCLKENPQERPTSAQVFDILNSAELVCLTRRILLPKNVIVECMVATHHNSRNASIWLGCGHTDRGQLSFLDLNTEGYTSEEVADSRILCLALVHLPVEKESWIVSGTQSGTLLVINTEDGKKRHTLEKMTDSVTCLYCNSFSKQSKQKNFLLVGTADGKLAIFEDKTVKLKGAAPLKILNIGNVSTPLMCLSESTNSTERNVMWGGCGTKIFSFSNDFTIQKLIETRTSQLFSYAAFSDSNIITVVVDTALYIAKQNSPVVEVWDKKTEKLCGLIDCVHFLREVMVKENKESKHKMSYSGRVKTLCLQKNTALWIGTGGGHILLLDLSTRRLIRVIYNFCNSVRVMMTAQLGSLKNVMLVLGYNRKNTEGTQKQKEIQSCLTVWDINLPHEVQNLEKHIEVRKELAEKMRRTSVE

[5] = molecular target: T3, Serine/threonine-protein kinase Nek9 (Homo sapiens) (UniProt Q8TD19); test: Selectivity interaction (ActivX KiNativ screen (kinase selectivity in THP-1 cell lysates)) EUB0000639a NEK9; type: subcellular; conditions: lysate, at 0.04 µM
T3 sequence (whole entry): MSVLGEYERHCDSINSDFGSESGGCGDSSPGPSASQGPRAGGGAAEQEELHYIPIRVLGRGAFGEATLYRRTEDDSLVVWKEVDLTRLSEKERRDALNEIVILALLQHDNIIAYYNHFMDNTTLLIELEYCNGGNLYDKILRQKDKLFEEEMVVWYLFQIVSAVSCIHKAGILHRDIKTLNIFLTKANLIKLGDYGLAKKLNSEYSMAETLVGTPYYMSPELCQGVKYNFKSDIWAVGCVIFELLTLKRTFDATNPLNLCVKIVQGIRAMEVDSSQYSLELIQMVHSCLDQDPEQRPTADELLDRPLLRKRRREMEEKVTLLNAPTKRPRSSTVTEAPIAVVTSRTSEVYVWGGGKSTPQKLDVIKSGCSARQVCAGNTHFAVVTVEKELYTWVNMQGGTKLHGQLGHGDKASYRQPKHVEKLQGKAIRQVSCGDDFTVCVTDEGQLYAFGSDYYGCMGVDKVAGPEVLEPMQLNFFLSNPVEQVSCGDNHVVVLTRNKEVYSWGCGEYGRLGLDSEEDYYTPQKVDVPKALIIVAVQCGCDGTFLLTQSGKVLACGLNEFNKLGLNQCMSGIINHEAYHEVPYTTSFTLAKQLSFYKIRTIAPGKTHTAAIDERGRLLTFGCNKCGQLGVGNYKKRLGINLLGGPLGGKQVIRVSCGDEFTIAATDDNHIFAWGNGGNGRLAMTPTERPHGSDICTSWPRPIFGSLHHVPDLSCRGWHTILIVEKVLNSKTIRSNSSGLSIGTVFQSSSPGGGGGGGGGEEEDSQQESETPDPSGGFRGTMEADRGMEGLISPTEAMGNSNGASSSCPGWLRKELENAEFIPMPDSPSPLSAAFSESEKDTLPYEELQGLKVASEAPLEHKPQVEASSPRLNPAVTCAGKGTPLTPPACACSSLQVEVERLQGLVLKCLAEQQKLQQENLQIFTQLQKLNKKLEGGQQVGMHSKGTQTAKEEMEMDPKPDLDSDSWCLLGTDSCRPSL

CN(C)CC#Cc1ccc2[nH]c3c(c2c1)-c1nc(N)ncc1CCC3
IC50 [1]: 4.5 µM

CCC(=O)N1CC[C@H](Nc2ncnc3c2CN(c2cnc(OC)c(C(F)(F)F)c2)CC3)C1 [LENIOLISIB]
IC50 [2]: > 10 µM

Cn1cc(-n2cnc3c(NCc4nc5cc(Cl)c(Cl)cc5[nH]4)nc(N4CCOCC4)nc32)cn1
% of control [3]: 12.7%

CC[C@@H]1[C@H](F)C(=O)N[C@@H]1COc1nccc2cc(C(N)=O)c(OC)cc12 [ZIMLOVISERTIB]
% of inhibition ([4]; at 0.01 µM): 18.4% | % of inhibition ([4]; at 0.04 µM): 1.9% | % of inhibition ([4]; at 0.2 µM): 22.9% | % of inhibition ([4]; at 1 µM): 70.9% | % of inhibition ([4]; at 5 µM): 78% | % of inhibition [5]: 5%
